1 substance from patent US20020128317A1, “Treatment of pathological conditions characterized by an increased IL-1 level” (Laboratories NEGMA, priority 2001, published 2002) can be followed below.

Series [1] is described as follows: Stability in aqueous solution. In kind it is physicochemical. On the procedure: (§1) Preferably the diacerein or rhein is administered orally in the conventional solid unit dosage form.
Another series has as its system TNF-α. In words: Effect of administration on TNF-α levels in subjects. In kind it is in vivo. As to conditions: subjects with abnormally elevated IL-1 and TNF-α levels.
In another series the test system is cyclooxygenase pathway. Nature of the series: Inhibitory effect on cyclooxygenase pathway. In kind it is biochemical. The source says: (§2) This unique mechanism of action of diacerein was thought to explain, at least in part, its efficacy in the symptomatic treatment of osteoarthritis.
For series [2], the system named is IL-1. In words: IL-1 inhibition, several studies in vitro and with animal models of osteoarthritis.
From the text: as §2

The nature of a further series: Solubility. In kind it is physicochemical. The protocol: as §1
For a further series, the system named is phospholipase pathway. In words: Inhibitory effect on phospholipase pathway. In kind it is biochemical.
From the text: as §2

Series [3] deals with prostaglandin biosynthesis. In words: Inhibition of prostaglandin biosynthesis. In kind it is biochemical.
From the text: as §2

In the next series the test system is cartilage degradation. Nature of the series: Effect on cartilage degradation in osteoarthritis treatment. In kind it is in vivo. As to conditions: prescribed treatment protocol.
For the next series, the system named is lipooxygenase pathway. Nature of the series: Inhibitory effect on lipooxygenase pathway. In kind it is biochemical.
From the text: as §2

Series [4] in a line: Gastric safety during osteoarthritis treatment. In kind it is in vivo.
From the text: as §2

For series [5], the system named is IL-1. Nature of the series: Effect of administration on IL-1 levels in subjects. The settings on record: subjects with abnormally elevated IL-1 and TNF-α levels. In kind it is in vivo.

Consider diacerein, for which the stability in water result in series [1] is given as “may not be sufficiently stable”. For the same substance, the “effect on TNF-α levels” value with TNF-α is “inhibitory effect”. Besides, in the series with cyclooxygenase pathway, the “inhibitory effect on the cyclooxygenase pathway” value is given as “no inhibitory effect was detected”. In addition, in the series on IL-1 [2], the IL-1 inhibition result was “is an IL-1 inhibitor”. Also, in “Solubility” (alcohol), the solubility in alcohol entry was “virtually insoluble”. In the series “Solubility” (water), the solubility in water result is “virtually insoluble”. Besides, the “inhibitory effect on the phospholipase pathway” value in the series on phospholipase pathway is listed as “no inhibitory effect was detected”. Further, in series [3], the “inhibition of prostaglandin biosynthesis” value is recorded as “neither diacerein nor rhein inhibit”. Moreover, the “effect on cartilage degradation” value in the series on cartilage degradation is “significant effect on cartilage degradation”. Moreover, in the series with lipooxygenase pathway, the “inhibitory effect on the lipooxygenase pathway” value was “no inhibitory effect was detected”. Moreover, the gastric safety profile entry in [4] is “excellent gastric safety profile”. Besides, the “effect on IL-1 levels” value in the series with IL-1 [5] is reported as “inhibitory effect”.
